Data set [1] concerns the target human recombinant α7 receptor (Homo sapiens, UniProt P36544). As to the kind of experiment: [3H]-AZ11637326 binding, α7-HEK. Details: expressed in transfected cells.
In data set [2] the test system is central nicotinic receptors. As to the kind of experiment: Selectivity panel, radioligand binding. The settings on record: 10 μM. How it is done: (§1) Secondary effects of AZD0328 on targets other than the α7 nicotinic acetylcholine receptor (nAChR) were investigated in vitro. Selectivity against a broad panel of 129 receptors, ion channels, nuclear hormone receptors, transporters and enzymes was tested using radioligand binding assays (Report no. GPW003).

The target of data set [3] is serotonergic 5-HT3 receptor (Homo sapiens, UniProt P46098). In words: Selectivity panel, radioligand binding. To be noted: read-out: inhibition of specific radioligand binding. How it is done: as §1
Another data set concerns the target muscarinic M3 receptor (Homo sapiens, UniProt P20309). In words: Selectivity panel, radioligand binding. To be noted: read-out: inhibition of specific radioligand binding. The procedure: as §1
A further data set has as its target muscarinic M5 receptor (Homo sapiens, UniProt P08912). As to the kind of experiment: Selectivity panel, radioligand binding. To be noted: read-out: inhibition of specific radioligand binding. The procedure:
as §1

Another data set deals with adrenergic α2B receptor (Homo sapiens, UniProt P18089). In words: Selectivity panel, radioligand binding. The settings on record: read-out: inhibition of specific radioligand binding. The procedure:
as §1

Data set [4] can be described thus: Allometric scaling / predicted human pharmacokinetics.
The target of data set [5] is T1, hERG-encoded potassium channel (Homo sapiens, UniProt Q12809).
T1 construct: expressed in transfected cells; host or cells: HEK cells
In words: hERG patch clamp. The data set is classed as cell-based. To be noted: HEK cells, read-out: IC50, block of hERG tail current (estimated). The procedure: A study was performed to evaluate the effects of AZD0328 on the α-subunit of the voltage-dependent potassium channel encoded by the human ether-a-go-go-related gene (hERG), using the patch clamp technique (Table 3).

Data set [6] is described as follows: Single dose PK/TK, minipig. The data set is classed as in vivo. From the text:
This section provides a summary of the pharmacokinetic and metabolism properties of AZD0328 derived from in vivo studies. […] The derived PK/TK parameters from these studies are presented in Table 4 for single dose studies (DMR4, 0619LR, 20030191PCR, DMO16, DMB10, DMW12, 50190, 0190DD and 03.330/1), and are presented in Table 5 multiple dose PK/TK studies (DMR4, 0612AR, DMB15, 50190, 0190DD and 0295AD).

The mark [7] stands for this setting: allometric scaling of in vivo data from rat and monkey.
The mark [8] stands for this setting: both sexes, Gottingen, in vivo, minipig 2M+2F, 50190, single oral 73.1 mg/kg (338 μmol/kg), capsules, fasted.
Setting [9] is: both sexes, Gottingen, in vivo, minipig 2M+2F, 50190, single oral 563 mg/kg (2602 μmol/kg), capsules, fasted.
Setting [10] is: male, Gottingen, in vivo, minipig 3M, DMW12, single oral 16.9 mg/kg (78.1 μmol/kg), solution, fed.

“And” between values parts separate entries of the source, which are not always exact repeats. Equal entries are not always repeated. Bounds are passed on as bounds.

Sequence of muscarinic M5 receptor (P08912 whole entry): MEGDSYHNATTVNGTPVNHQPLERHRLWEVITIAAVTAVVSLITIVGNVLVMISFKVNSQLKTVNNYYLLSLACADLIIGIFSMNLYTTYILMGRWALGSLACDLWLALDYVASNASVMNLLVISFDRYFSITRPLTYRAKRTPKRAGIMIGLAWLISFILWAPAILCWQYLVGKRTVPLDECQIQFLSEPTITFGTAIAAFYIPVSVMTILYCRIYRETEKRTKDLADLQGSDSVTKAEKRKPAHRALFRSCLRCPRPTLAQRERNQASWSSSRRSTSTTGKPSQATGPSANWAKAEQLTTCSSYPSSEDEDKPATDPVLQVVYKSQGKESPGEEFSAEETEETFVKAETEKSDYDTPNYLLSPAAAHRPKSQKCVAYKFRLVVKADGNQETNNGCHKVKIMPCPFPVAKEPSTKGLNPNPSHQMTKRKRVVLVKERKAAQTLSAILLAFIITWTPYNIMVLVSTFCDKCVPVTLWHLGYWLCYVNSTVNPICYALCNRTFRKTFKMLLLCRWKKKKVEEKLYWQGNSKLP
T1 sequence (Q12809 whole entry): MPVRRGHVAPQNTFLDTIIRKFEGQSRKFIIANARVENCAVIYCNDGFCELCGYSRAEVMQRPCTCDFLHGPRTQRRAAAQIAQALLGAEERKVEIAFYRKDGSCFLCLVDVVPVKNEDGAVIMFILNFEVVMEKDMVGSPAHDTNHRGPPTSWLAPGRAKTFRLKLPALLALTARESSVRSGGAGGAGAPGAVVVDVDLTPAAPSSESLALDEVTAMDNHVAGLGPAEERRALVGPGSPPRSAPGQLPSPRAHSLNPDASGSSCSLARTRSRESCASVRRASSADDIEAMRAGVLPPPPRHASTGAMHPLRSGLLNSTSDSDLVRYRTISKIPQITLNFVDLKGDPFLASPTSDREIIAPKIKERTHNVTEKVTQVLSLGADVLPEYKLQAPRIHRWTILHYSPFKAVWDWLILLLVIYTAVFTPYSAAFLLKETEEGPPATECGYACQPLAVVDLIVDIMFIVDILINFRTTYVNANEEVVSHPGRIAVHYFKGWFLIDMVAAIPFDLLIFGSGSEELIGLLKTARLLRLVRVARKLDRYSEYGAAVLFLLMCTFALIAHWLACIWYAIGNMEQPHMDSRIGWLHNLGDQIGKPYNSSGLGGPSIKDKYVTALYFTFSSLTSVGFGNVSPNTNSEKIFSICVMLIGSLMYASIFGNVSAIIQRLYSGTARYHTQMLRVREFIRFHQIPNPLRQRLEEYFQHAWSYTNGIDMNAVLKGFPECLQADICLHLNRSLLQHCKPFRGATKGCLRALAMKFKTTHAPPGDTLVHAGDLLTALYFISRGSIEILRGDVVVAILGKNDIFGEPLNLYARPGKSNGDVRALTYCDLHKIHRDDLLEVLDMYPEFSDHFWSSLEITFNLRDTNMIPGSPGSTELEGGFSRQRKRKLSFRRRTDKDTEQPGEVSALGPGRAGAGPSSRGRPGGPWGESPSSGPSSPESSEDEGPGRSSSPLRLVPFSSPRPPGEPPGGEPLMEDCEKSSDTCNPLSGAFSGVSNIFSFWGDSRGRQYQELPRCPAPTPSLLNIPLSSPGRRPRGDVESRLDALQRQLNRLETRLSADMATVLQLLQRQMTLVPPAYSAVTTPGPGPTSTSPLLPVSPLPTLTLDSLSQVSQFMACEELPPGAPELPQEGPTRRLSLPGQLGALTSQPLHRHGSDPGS
Sequence of muscarinic M3 receptor (P20309 whole entry): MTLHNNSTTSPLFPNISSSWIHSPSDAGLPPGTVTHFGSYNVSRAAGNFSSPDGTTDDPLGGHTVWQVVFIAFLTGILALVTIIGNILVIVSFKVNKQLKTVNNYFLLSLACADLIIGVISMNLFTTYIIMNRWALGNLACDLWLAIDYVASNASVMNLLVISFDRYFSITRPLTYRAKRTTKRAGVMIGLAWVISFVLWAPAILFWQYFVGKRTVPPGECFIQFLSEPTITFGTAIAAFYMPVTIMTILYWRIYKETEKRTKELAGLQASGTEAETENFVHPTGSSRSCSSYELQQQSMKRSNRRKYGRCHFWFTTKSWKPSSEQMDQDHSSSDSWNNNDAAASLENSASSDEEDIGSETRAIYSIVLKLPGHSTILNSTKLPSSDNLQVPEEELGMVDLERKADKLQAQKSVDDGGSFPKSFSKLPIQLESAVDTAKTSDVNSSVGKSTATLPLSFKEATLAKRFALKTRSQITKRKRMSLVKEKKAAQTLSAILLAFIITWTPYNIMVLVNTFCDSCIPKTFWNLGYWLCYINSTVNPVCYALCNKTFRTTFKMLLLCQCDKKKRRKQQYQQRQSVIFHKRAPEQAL
Sequence of serotonergic 5-HT3 receptor (P46098 24-478): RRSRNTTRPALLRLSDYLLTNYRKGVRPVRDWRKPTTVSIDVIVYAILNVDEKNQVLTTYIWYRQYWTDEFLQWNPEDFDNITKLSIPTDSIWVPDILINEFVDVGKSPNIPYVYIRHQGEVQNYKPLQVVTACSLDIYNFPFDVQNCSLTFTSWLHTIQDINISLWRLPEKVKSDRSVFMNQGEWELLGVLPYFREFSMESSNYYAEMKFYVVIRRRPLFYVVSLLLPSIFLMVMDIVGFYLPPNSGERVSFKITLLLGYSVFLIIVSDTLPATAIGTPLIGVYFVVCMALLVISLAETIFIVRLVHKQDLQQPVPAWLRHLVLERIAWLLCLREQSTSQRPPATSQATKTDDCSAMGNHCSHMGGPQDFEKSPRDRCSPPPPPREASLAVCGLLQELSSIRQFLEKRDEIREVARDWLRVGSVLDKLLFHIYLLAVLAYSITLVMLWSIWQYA
Sequence of human recombinant α7 receptor (P36544 23-502): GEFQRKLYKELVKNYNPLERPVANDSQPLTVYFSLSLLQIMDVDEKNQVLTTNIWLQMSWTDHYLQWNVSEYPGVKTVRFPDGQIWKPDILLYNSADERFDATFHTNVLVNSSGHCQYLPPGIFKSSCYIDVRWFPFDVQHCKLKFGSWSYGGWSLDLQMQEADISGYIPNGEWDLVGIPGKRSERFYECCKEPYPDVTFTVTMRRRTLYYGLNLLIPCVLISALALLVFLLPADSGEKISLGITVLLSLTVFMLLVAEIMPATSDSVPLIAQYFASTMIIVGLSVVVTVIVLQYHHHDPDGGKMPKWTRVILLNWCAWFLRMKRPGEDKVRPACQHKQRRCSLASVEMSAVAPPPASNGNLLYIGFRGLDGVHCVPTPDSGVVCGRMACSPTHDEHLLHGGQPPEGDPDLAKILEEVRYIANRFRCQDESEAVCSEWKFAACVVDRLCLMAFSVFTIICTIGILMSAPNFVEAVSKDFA
Sequence of adrenergic α2B receptor (P18089 whole entry): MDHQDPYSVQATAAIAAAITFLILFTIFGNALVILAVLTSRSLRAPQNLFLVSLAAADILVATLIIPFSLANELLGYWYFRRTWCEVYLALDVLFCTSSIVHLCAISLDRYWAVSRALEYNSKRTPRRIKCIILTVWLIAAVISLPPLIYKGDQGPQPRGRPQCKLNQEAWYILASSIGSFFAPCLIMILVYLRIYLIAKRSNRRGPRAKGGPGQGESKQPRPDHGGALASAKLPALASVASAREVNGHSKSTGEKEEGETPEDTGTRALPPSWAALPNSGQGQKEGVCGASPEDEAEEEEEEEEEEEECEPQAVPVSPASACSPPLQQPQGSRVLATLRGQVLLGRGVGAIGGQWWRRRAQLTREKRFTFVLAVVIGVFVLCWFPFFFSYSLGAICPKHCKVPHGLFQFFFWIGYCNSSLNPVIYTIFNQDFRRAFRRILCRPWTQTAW

Regarding `c1cnc2c(c1)C[C@@]1(CN3CCC1CC3)O2` [AZD0328, (R)-Spiro[1-azabicyclo[2.2.2]octane-3,2′(3′H)-furo[2,3-b]pyridine]], in data set [1], the Ki is 0.0064 µM. For the same molecule, in data set [2], the “inhibition of specific radioligand binding” value is given as greater than 50%. For the same molecule, the inhibition at 10 µM (in data set [3]; on muscarinic M3 receptor; at muscarinic M5 receptor; on adrenergic α2B receptor) was greater than 50% throughout. Also, the “predicted human Vdss” value in data set [4] (setting [7]) is reported as 2.7 L/kg. In data set [4] (setting [7]), the “predicted human systemic clearance” value is on record as 5.9 mL/min/kg. For the same molecule, in [4] (one-compartment pharmacokinetic model), the human predicted half-life was 5.3 h. For the same molecule, the IC50 in [5] is 32 µM. In addition, the exposure (AUC) was 3140 ng·h/mL and 14.5 µM·h in data set [6] (setting [8]); 18200 ng·h/mL and 84.2 µM·h in [6] (setting [9]); 404 ng·h/mL and 1.87 µM·h in [6] (setting [10]). For the same molecule, the Cmax in data set [6] (setting [8]) was 379 ng/mL and 1.75 µM; in data set [6] (setting [9]), 1910 ng/mL and 8.84 µM; in data set [6] (setting [10]) it was 81.3 ng/mL and 376 nM. Also, the time to peak (Tmax) in [6] (setting [8]) was 2 to 6 h; in [6] (setting [9]), 12 h; in data set [6] (setting [10]) it was 1 to 4 h. The molecule further had a clearance in data set [6] (male, Gottingen, in vivo, minipig 3M, DMW12, iv 8.5 mg/kg (39.3 μmol/kg)) of 35.5 mL/min/kg. Further, in data set [6] (male, Gottingen, in vivo, minipig 3M, DMW12, iv 8.5 mg/kg (39.3 μmol/kg), read-out: T½ (converted)), the half-life was 3.71 ± 1.72 h. Also, in data set [6] (male, Gottingen, in vivo, minipig 3M, DMW12, iv 8.5 mg/kg (39.3 μmol/kg), read-out: Vss), the Vd amounted to 11.1 ± 4.2 L/kg. The F in data set [6] (minipig 3M, DMW12, oral 16.9 mg/kg vs iv 8.5 mg/kg) was found to be 5.19 ± 2.22%.

The record behind these values is patent publication US20080242688A1, “Method 741” (ASTRAZENECA AB, priority 2007, published 2008).
